This note sets out measurements from ChEMBL document CHEMBL1155307, “4-Anilino-7-pyridyl-3-quinolinecarbonitriles as Src kinase inhibitors” (Bioorg Med Chem Lett, 2009).

In this experiment the target is Proto-oncogene tyrosine-protein kinase Src (Homo sapiens, UniProt P12931). Put plainly: Inhibition of Src.

The IC50 is the concentration at which inhibition is half-maximal.

SMILES strings stand for the structures.

Proto-oncogene tyrosine-protein kinase Src, sequence (P12931 2-536 limits assumed): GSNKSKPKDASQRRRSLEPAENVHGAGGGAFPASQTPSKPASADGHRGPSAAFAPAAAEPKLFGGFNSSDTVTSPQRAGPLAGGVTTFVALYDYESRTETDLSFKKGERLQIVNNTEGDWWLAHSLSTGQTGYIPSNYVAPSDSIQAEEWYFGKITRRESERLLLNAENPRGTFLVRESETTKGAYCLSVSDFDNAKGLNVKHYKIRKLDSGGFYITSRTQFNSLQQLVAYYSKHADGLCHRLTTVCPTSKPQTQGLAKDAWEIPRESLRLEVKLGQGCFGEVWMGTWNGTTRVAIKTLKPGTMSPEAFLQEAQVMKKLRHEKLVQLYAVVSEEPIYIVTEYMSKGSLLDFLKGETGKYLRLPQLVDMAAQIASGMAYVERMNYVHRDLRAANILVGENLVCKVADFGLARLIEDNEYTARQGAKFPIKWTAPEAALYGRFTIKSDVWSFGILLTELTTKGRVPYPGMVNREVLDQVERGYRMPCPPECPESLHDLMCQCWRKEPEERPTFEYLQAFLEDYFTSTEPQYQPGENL

Molecule `COc1cc(Nc2c(C#N)cnc3cc(-c4ncccc4CN4CCOCC4)ccc23)c(Cl)cc1Cl` returned an IC50 of 950 nM.
